Test results taken from ChEMBL document CHEMBL1201862, “PubChem BioAssay data set” (2004).
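Briefly, cells in 96-well plates were exposed to five compound concentrations for 48 h, and endpoints were estimated by linear interpolation. GI50 is the concentration that inhibits growth by half.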 Calls of active or inactive are those of the source. Rule as the data show it: active = GI50 up to about 1.1 µM and inactive = higher.

Assays:
Assay in all cases: NCI anticancer screen, dose series, 48 h
RXF 631 = test system: RXF 631
DLD-1 = test system: DLD-1
SNB-78 = test system: SNB-78
DMS-114 = test system: DMS-114
XF498 = test system: XF498
HOP-18 = test system: HOP-18
M19-MEL = test system: M19-MEL
KM-20L2 = test system: KM-20L2

Measured: GI50

Cc1cc(Br)cc(C)c1NC(=O)C(=O)C(C(=O)c1ccc2ccccc2c1)C1OC(=O)c2ccccc21 (stereo unspecified)
inactive: RXF 631 16.4 µM | DLD-1 13 µM | SNB-78 > 10 µM | DMS-114 7.78 µM | XF498 1.14 µM | HOP-18 21.7 µM | M19-MEL 12.4 µM | KM-20L2 19.2 µM

CCOP(=O)(C/C(=N/NC(C)(C)C)C(=O)Nc1nc2ccc(C)cc2s1)OCC
inactive: RXF 631 > 100 µM | SNB-78 > 100 µM | DMS-114 > 100 µM | XF498 > 100 µM | HOP-18 > 100 µM | M19-MEL > 100 µM | KM-20L2 > 100 µM

CCOC(=O)CCCO
inactive: RXF 631 > 100 µM | DLD-1 > 100 µM | XF498 > 100 µM | HOP-18 > 100 µM | KM-20L2 > 100 µM

Cc1ccc(SSCCCS(=O)O)cc1
inactive: RXF 631 20.4 µM | DLD-1 45.8 µM | DMS-114 15.9 µM | XF498 > 100 µM | HOP-18 > 100 µM | M19-MEL 31.8 µM | KM-20L2 31.7 µM

O=C1NC2(O)c3ccccc3C(=O)C2(O)N1c1ccccc1 (stereo unspecified)
inactive: RXF 631 > 100 µM | DLD-1 > 100 µM | DMS-114 > 100 µM | XF498 > 100 µM | HOP-18 > 100 µM | M19-MEL > 100 µM | KM-20L2 > 100 µM

COc1cc2ccnc(-c3n[nH]c4cc(OC)c(OC)cc34)c2cc1OC
inactive: RXF 631 33 µM | DMS-114 > 100 µM | XF498 > 100 µM | HOP-18 > 100 µM | M19-MEL > 100 µM | KM-20L2 > 100 µM

N#CCCN(c1ccc(-c2nnc(NC(=O)CNNC(=O)CC(=O)Nc3ccccc3)s2)cc1)S(=O)(=O)c1ccccc1
inactive: RXF 631 > 100 µM | DLD-1 > 100 µM | DMS-114 55.8 µM | XF498 > 100 µM | HOP-18 > 100 µM | M19-MEL > 100 µM
